# In patent US4960775A, “Pyrrolophthalazines” (May & Baker Limited, priority 1987, dated 1990):
# Target: T1, rat hepatic microsomal HMG CoA reductase (Rattus norvegicus, UniProt P51639)
# T1 construct: rat hepatic microsomal HMG CoA reductase activity in vitro; from tissue; host or cells: rat liver microsomes
# T1 sequence (P51639 1-887): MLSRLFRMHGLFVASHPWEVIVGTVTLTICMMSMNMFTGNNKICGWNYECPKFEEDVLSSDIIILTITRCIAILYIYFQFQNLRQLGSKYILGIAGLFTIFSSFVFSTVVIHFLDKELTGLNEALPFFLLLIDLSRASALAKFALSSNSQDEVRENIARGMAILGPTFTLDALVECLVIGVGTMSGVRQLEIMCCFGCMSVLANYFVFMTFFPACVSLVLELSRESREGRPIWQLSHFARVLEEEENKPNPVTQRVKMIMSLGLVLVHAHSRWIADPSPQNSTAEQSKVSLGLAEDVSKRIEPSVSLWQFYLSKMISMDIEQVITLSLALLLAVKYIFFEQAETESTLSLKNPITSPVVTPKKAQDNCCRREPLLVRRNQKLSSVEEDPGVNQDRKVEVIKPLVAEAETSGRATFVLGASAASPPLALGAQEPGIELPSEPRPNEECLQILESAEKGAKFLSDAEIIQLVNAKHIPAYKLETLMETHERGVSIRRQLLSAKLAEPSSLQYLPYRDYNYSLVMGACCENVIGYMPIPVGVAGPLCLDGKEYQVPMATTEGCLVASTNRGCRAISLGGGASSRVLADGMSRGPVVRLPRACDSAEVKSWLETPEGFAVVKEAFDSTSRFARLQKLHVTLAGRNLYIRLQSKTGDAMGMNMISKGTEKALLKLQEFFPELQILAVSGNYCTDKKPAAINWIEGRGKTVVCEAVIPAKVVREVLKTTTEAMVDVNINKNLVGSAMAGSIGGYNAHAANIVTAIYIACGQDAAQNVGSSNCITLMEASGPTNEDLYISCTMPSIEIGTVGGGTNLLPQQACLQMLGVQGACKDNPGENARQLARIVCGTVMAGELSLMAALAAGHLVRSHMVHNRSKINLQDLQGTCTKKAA
# Assay: inhibition of rat hepatic microsomal HMG CoA reductase activity in vitro
# Type: biochemical
# Settings: for inhibition at 0.027 µg/mL: 0.027 micrograms/ml; for inhibition at 0.082 µg/mL: 0.082 micrograms/ml; for inhibition at 0.24 µg/mL: 0.24 micrograms/ml; for inhibition at 0.74 µg/mL: 0.74 micrograms/ml; for inhibition at 2.22 µg/mL: 2.22 micrograms/ml; for inhibition at 6.66 µg/mL: 6.66 micrograms/ml; for inhibition at 0.25 µg/mL: 0.25 micrograms/ml; for inhibition at 6.67 µg/mL: 6.67 micrograms/ml; for inhibition at 20 µg/mL: 20.0 micrograms/ml
# Source text: In the table the concentrations of the test compounds are expressed in micrograms/ml.
Structure (SMILES),inhibition at 0.027 µg/mL [%],inhibition at 0.082 µg/mL [%],inhibition at 0.24 µg/mL [%],inhibition at 6.66 µg/mL [%],inhibition at 0.27 µg/mL (0.27 micrograms/ml (so in the source)) [%],inhibition at 0.74 µg/mL [%],inhibition at 2.22 µg/mL [%],inhibition at 0.25 µg/mL [%],inhibition at 6.67 µg/mL [%],inhibition at 20 µg/mL [%]
"CC(C)c1c(/C=C/C(O)CC(O)CC(=O)O)c(-c2ccccc2)c2c3ccccc3cnn12 (stereo not drawn) [Compound B, sodium (E)-3,5-dihydroxy-7-(3-isopropyl-1-phenylpyrrolo[2,1-a]phthalazin-2-yl)-hept-6-enoate]",,,,,,56,74,38,90,98
"CC(C)c1c(/C=C/C(O)CC(O)CC(=O)O)c(-c2ccc(F)cc2)c2c3ccccc3cnn12 (stereo not drawn) [Compound D, sodium (E)-7-{1-(4-fluorophenyl)-3-isopropylpyrrolo[2,1-a]-phthalazin-2-yl)-3,5-dihydroxyhept-6-enoate]",47,50,,,,66,76,61,90,
"CC(C)c1c(/C=C/C(=O)CC(O)CC(=O)O)c(-c2ccc(F)cc2)c2c3ccccc3cnn12 (stereo not drawn) [Compound G, sodium (E)-7-{1-(4-fluorophenyl)-3-isopropylpyrrolo[2,1-a]phthalazin-2-yl)-3-hydroxy-5-oxohept-6-enoate]",,,,77,,29,52,,,92

# Further lines, with some results ahead:
inhibition at 0.027 µg/mL [%],inhibition at 0.082 µg/mL [%],inhibition at 0.24 µg/mL [%],inhibition at 6.66 µg/mL [%],inhibition at 0.27 µg/mL (0.27 micrograms/ml (so in the source)) [%],Structure (SMILES),inhibition at 0.74 µg/mL [%],inhibition at 2.22 µg/mL [%],inhibition at 0.25 µg/mL [%],inhibition at 6.67 µg/mL [%],inhibition at 20 µg/mL [%]
23,33,47,95,,"CCOC(=O)C[C@H](O)C[C@H](O)/C=C/c1c(-c2ccc(F)cc2)c2c3ccccc3cnn2c1C(C)C (relative stereo) [CA, ethyl erythro-(E)-7-{1-(4-fluorophenyl)-3-isopropylpyrrolo[2,1-a]phthalazin-2-yl)-3,5-dihydroxyhept-6-enoate]",65,85,,,
49,58,72,98,,"CC(C)c1c(/C=C/[C@@H](O)C[C@@H](O)CC(=O)O)c(-c2ccc(F)cc2)c2c3ccccc3cnn12 (relative stereo) [Compound DA, sodium erythro-(E)-7-{1-(4-fluorophenyl)-3-isopropylpyrrolo[2,1-a]phthalazin-2-yl}-3,5-dihydroxyhept-6-enoate]",86,94,,,
,34,45,85,29,"CC(C)c1c(/C=C/[C@@H](O)C[C@H](O)CC(=O)O)c(-c2ccc(F)cc2)c2c3ccccc3cnn12 (relative stereo) [Compound DB, sodium threo-(E)-7-{1-(4-fluorophenyl)-3-isopropylpyrrolo[2,1-a]-phthalazin-2-yl}-3,5-dihydroxyhept-6-enoate]",52,67,,,
